Data from paper PMC9611727, “Optimization of a Novel Mandelamide-Derived Pyrrolopyrimidine Series of PERK Inhibitors” (Pharmaceutics, 2022).

Legend:
Experiment in all cases: scanMAX kinase panel
Format in all cases: binding
Settings in all cases: read-out: % Control; for remaining binding at 1 µM: 1000 nM
YANK1 = molecular target: T1, YANK1 (Homo sapiens, UniProt Q8WU08)
T1 construct: purchased DiscoverX (scanMAX panel)
Text: (§1) Supplemental Table S2. scanMAXSM Kinome Assay Results. Complete tabulated data of all 468 kinases from the panel, including
(§2) 403 wild-type and 65 mutant isoforms. […] Cmpd 11 and Cmpd 24

AXL = molecular target: T2, AXL (Homo sapiens, UniProt P30530)
T2 construct: purchased DiscoverX scanMAX
T2 sequence (P30530 26-894): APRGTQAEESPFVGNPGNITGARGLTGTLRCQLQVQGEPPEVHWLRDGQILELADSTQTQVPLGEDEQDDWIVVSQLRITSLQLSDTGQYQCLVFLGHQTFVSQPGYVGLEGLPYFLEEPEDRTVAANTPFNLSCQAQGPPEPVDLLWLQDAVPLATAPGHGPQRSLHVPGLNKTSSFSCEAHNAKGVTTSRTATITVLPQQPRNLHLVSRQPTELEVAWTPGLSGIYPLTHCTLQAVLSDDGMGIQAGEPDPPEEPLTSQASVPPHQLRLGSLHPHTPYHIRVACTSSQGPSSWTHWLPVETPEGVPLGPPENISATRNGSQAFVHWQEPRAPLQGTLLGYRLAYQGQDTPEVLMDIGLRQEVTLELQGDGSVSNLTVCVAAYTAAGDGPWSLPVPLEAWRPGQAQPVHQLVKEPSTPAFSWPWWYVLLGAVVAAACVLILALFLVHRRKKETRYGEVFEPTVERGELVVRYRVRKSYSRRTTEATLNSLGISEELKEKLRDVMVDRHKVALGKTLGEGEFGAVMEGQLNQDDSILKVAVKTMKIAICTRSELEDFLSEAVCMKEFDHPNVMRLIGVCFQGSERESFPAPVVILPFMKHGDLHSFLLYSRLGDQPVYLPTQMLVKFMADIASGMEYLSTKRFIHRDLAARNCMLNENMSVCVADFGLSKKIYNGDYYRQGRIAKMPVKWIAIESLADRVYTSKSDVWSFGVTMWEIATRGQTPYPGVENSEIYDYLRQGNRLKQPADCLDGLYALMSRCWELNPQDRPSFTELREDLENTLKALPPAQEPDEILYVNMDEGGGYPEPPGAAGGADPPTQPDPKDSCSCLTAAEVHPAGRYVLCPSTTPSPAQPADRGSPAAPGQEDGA
Text: as §1, §2

DDR1 = molecular target: T3, DDR1 (Homo sapiens, UniProt Q08345)
T3 construct: purchased DiscoverX scanMAX
T3 sequence (Q08345 19-913): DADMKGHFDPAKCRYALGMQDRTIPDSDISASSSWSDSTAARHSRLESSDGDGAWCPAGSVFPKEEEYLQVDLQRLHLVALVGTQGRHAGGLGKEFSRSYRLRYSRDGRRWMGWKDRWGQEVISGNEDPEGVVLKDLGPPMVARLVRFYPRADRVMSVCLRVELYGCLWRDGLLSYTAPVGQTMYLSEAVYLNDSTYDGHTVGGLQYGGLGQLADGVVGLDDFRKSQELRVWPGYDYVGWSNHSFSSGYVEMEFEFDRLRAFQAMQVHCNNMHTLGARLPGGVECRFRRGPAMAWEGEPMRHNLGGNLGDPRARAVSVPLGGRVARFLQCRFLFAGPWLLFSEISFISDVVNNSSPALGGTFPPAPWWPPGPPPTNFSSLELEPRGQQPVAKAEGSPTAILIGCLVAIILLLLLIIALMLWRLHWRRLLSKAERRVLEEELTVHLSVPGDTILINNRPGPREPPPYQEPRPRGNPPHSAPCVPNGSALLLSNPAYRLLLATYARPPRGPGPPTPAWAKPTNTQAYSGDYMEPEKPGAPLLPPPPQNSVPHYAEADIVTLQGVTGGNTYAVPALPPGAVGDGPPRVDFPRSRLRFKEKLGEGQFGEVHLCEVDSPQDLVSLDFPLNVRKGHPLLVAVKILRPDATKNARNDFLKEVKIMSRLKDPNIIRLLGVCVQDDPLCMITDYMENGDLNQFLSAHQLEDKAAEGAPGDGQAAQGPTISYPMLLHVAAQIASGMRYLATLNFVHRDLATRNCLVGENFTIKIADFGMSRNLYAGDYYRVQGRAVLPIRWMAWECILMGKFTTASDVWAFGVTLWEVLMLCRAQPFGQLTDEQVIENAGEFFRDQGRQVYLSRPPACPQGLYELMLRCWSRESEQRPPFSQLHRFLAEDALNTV
Text: as §1, §2

NEK1 = molecular target: T4, NEK1 (Homo sapiens, UniProt Q96PY6)
T4 construct: purchased DiscoverX scanMAX
T4 sequence (Q96PY6 1-1258): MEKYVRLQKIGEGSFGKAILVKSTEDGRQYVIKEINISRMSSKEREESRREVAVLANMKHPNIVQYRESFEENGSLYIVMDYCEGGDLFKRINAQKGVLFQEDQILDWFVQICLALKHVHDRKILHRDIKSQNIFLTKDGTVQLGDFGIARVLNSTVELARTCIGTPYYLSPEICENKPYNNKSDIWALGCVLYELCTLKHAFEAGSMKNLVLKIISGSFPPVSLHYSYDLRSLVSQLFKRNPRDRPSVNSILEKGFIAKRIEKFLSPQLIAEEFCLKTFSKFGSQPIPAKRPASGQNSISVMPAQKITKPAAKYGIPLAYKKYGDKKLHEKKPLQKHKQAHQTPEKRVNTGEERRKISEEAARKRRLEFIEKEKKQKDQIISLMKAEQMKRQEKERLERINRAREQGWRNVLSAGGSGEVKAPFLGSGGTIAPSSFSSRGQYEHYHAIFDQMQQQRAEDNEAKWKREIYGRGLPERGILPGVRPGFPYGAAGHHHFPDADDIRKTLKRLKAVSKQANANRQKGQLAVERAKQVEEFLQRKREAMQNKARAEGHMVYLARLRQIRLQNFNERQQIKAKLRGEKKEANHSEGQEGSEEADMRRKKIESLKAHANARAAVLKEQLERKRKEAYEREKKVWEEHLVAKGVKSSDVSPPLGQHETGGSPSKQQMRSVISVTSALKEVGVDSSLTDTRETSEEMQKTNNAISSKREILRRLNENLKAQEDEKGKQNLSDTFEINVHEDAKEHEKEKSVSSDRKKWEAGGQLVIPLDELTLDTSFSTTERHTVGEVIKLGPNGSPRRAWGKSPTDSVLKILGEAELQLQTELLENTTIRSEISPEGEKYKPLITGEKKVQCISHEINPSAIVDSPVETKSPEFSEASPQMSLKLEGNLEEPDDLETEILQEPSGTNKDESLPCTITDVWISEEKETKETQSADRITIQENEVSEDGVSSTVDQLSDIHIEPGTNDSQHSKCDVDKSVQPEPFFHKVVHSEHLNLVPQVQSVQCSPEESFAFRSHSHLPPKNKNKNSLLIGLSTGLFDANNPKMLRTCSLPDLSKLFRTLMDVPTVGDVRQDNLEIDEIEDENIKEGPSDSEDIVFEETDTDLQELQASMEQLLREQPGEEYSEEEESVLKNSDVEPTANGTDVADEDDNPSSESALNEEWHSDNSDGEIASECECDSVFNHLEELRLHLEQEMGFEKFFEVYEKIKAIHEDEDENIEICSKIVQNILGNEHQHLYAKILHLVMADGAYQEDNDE
Text: as §1, §2

PAK3 = molecular target: T5, PAK3 (Homo sapiens, UniProt O75914)
T5 construct: purchased DiscoverX scanMAX
T5 sequence (O75914 whole entry): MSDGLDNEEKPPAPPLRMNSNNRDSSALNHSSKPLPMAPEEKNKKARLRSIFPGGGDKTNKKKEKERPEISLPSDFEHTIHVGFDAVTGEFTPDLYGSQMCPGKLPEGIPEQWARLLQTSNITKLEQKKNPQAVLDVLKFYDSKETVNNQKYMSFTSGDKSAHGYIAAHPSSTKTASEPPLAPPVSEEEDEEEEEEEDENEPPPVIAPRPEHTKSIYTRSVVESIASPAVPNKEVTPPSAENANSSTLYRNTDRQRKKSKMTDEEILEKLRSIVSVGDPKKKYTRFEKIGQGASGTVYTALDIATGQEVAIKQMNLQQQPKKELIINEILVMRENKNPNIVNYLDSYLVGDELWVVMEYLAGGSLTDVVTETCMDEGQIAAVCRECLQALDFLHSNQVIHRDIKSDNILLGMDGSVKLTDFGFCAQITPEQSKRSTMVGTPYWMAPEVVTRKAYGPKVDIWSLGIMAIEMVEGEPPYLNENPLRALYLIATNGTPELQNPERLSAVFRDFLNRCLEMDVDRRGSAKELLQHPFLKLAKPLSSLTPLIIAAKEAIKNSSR
Text: as §1, §2

TRKA = molecular target: T6, TRKA (Homo sapiens, UniProt P04629)
T6 construct: purchased DiscoverX (scanMAX panel)
T6 sequence (P04629 33-796): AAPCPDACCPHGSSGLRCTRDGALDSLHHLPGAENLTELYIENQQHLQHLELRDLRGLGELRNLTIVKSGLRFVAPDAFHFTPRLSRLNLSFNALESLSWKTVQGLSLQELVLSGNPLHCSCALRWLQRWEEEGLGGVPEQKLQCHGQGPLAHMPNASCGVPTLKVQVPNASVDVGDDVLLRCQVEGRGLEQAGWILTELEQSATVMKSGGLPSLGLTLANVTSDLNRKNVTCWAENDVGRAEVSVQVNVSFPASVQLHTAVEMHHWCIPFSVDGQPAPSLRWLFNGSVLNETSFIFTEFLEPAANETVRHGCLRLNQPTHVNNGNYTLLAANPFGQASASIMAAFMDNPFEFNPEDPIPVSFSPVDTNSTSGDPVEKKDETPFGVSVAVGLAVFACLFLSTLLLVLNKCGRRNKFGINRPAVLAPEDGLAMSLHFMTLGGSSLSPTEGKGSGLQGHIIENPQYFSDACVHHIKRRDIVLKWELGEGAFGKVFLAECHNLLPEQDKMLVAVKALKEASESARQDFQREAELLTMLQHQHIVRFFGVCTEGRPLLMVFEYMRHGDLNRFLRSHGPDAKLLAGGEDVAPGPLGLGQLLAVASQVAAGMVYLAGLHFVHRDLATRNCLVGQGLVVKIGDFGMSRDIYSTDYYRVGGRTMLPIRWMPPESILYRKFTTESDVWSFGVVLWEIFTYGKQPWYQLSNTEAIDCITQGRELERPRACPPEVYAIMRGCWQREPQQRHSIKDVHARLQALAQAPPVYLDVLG
Text: as §1, §2

T1 sequence (Q8WU08 whole entry): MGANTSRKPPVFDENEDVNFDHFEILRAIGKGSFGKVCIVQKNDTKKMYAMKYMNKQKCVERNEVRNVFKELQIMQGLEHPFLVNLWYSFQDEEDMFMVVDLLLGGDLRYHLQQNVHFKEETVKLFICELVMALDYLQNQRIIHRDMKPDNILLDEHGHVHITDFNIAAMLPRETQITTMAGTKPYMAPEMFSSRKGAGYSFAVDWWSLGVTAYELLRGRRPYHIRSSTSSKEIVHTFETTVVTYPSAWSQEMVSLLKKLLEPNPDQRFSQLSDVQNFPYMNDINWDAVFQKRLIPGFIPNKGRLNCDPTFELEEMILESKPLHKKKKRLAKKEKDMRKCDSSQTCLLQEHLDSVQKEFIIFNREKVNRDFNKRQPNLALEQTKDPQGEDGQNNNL

Compound	remaining binding at 1 µM (YANK1)	remaining binding at 1 µM (AXL)	remaining binding at 1 µM (DDR1)	remaining binding at 1 µM (NEK1)	remaining binding at 1 µM (PAK3)	remaining binding at 1 µM (TRKA)	remaining binding at 0.1 µM (YANK1; 100 nM)	remaining binding at 0.1 µM (AXL; 100 nM)	remaining binding at 0.1 µM (DDR1; 100 nM)	remaining binding at 0.1 µM (NEK1; 100 nM)	remaining binding at 0.1 µM (PAK3; 100 nM)	remaining binding at 0.1 µM (TRKA; 100 nM)
Cc1cc(NC(=O)[C@H](O)c2cccc(F)c2)ccc1-c1cn(C)c2ncnc(N)c12 [Compound 11, (R)-N-(4-(4-amino-7-methyl-7H-pyrrolo[2,3-d]pyrimidin-5-yl)-3-methylphenyl)-2-(3-fluorophenyl)-2-hydroxy acetamide]	28%	56%	72%	2.9%	36%	12%	–	–	–	–	–	–
Cc1nc(N)c2c(-c3ccc(NC(=O)[C@H](O)c4cccc(F)c4)cc3C)cn(C)c2n1 [Compound 24]	94%	100%	100%	100%	100%	67%	–	–	–	–	–	–
Cc1nc(N)c2c(-c3ccc(NC(=O)[C@H](O)c4cccc(C(F)(F)F)c4)cc3C)cn(C)c2n1 [Compound 26]	67%	0.7%	29%	100%	31%	3.4%	96%	99%	100%	88%	97%	29%
